In US10925858B2, “S-nitrosoglutathione (GSNO) and GSNO reductase inhibitors for use in therapy” (MUSC FOUNDATION FOR RESEARCH DEVELOPMENT, priority 2017, dated 2021):

Assays:
diabetic mice = experiment: Radial arm maze in STZ induced diabetic mice; format: in vivo
Experimental: Male laca mice weighing between 28-32 g were procured from the Central Animal House, Panjab University, Chandigarh. The animals were acclimatized and were fed with standard pellet diet and water ad libitum. The experimental protocols were approved by the Institutional Ethics Committee and were conducted according to Indian National Science Academy (INSA) guidelines for the use and care of experimental animals. The animals were divided into four groups: (i) Control animals received phosphate buffered saline (PBS) throughout the study; (ii) Control+GSNO animals were administered with GSNO 100 μg/kg body weight orally, dissolved in PBS after every 24 h for 8 weeks; (iii) Diabetic animals were injected with STZ at a dose of 40 mg/kg body weight intraperitoneally for 5 days dissolved in 0.1 mol/L citrate buffer, pH 4.5 and Diabetic+GSNO mice were administered GSNO 100 μg/kg body weight orally dissolved in PBS after every 24 h for 8 weeks after the induction of diabetes. Animals were assessed weekly for development of diabetic encephalopathy in terms of memory deficits. All experimental procedures were done on mice at the end of study. Radial arm maze was used to assess specific learning and memory in the radial arm maze (Veena et al., 2009). Its apparatus consisted of equally spaced arms (35×9×5 cm) radiating from an octagonal central platform, and the maze was kept 80 cm elevated from the ground. Prior to the acquisition, all the arms were baited and mice were allowed to explore the maze for 10 min and were subjected to two such acclimatization sessions on consecutive days. […] An arm choice was recorded when the animal reached the end of an arm. An arm entry was counted when all four paws entered the arm. […] After acquisition period, animals were evaluated for retention of the task. […] The data were analyzed for the number of reference memory errors (exploring an arm never baited), working memory errors (exploring a baited arm already visited), total number of errors, memory retention and % correct choice.

[1] = test system: protein-associated 3-nitrotyrosine; experiment: Assay for protein-associated nitrotyrosine in hBMVECs; format: cell-based, human; conditions: thrombin 0.1 unit/ml 20 min; L-NIO or FeTPPS 10 μM pretreated 30 min; ELISA
Experimental: Cell culture: Primary human brain microvascular endothelial cells (hBMVECs) were purchased from Angio-Proteomie (Cat #: cAP-0002, Atlanta, Ga.). The cells were cultured in cell culture flasks or plates precoated with Quick Coating Solution (Angio-Proteomie; Cat #: cAP-01) and maintained in Endothelial Growth Medium (Angio-Proteomie; Cat #: cAP-02) at 37° C. under 5% CO2/95% air. When the cells were almost confluent, the medium was replaced with endothelial basal medium (Angio-Proteomie; Cat #: cAP-03) containing 0.5% fetal bovine serum (FBS; Life Technologies, Grand Island, N.Y.) about 8-12 hours before the experiment. No institutional approval was required for this study. The study was not pre-registered.
Cellular levels of protein-associated 3-nitrotyrosine were analyzed by ELISA Kit (Abeam, Cat #: ab116691) and Western blot analysis using antibody specific to 3-nitrotyrosine (Abeam, Cat #: ab61392). For the ELISA, hBMVECs were lysed in extraction buffer provided with the kit followed by centrifugation at 16,000×g 4° C. The cell lysate supernatants were subjected to protein quantification with Bio-Rad DC protein assay kit (Bio-Rad, Hercules, Calif.) and the equal amounts of proteins (500 μg) were loaded onto 96 well microplate coated with 3-nitrotyrosine capture antibody and followed by incubation with biotin-conjugated 3-nitrotyrosine detector antibody. Following washing, the plates were incubated with HRP-conjugated streptoavidin and the levels of 3-nitrotyrosine were measured by incubation with 3,3′,5,5′-tetramethylbenzidine solution and colorimetric analysis at […] using SpectraMax 190 Microplate Reader (Molecular Devices, Sunnyvale, Calif.). For analysis of degree of RhoA tyrosine nitration, the cell lysates were immunoprecipiated with antibody specific to 3-nitrotyrosine (Abeam) and the levels of tyrosine nitrated RhoA were analyzed by Western analysis for RhoA.

[2] = diabetic mice, GSNO 100 μg/kg body weight orally daily for 8 weeks, vs diabetic group

N[C@@H](CCC(=O)N[C@@H](CSN=O)C(=O)NCC(=O)O)C(=O)O [GSNO, S-nitrosoglutathione]
increase in the percentage of correct choices (diabetic mice; [2]): 30% | lowered number of errors (diabetic mice; [2]): 44% | radial arm maze parameters of GSNO-treated control mice (diabetic mice; non-diabetic control mice, GSNO 100 μg/kg orally for 8 weeks, vs control mice): not significantly different from control mice

Cl.O=S(=O)([O-])c1ccc(-c2c3nc(c(-c4ccc(S(=O)(=O)O)cc4)c4ccc([nH]4)c(-c4ccc(S(=O)(=O)O)cc4)c4nc(c(-c5ccc(S(=O)(=O)O)cc5)c5ccc2[nH]5)C=C4)C=C3)cc1.[Fe] [FeTPPS, 5,10,15,20-Tetrakis(4-sulfonatophenyl)porphyrinato Iron (III), Cl, reference compound]
thrombin-induced 3-nitrotyrosine levels [1]: inhibited
